The results in this text go back to EP0573883A1, “Utilization of 3 substituted aryl-5-alkyl-isoxazole-4-carboxylic acid derivatives against endoparasites new 3-substituted aryl-5-alkyl-isoxazole-4-carboxylic acid derivatives and process for their preparation” (BAYER AG, priority 1992, dated 1993).

SMILES strings stand for the structures.

One assay deals with Haemonchus contortus. Briefly: In vivo nematode test, Haemonchus contortus / sheep (faecal egg count before and after treatment). To be noted: experimentally infected sheep (Schaf), treated after the prepatent period, pure active substance in gelatin capsules, oral, dose giving complete cessation of egg excretion, read-out: Dosis effectiva. The source says: Haemonchus contortus / Schaf
Experimentell mit Haemonchus contortus infizierte Schafe wurden nach Ablauf der Präpatenzzeit des Parasiten behandelt. Die Wirkstoffe wurden als reiner Wirkstoff in Gelatinekapseln oral appliziert.
(§1) Der Wirkungsgrad wird dadurch bestimmt, daß man die mit dem Kot ausgeschiedenen Wurmeier vor und nach der Behandlung quantitativ auszählt.
(§2) Ein völliges Sistieren der Eiausscheidung nach der Behandlung bedeutet, daß die Würmer abgetrieben wurden oder so geschädigt sind, daß sie keine Eier mehr produzieren (Dosis effectiva).
(§3) Geprüfte Wirkstoffe und wirksame Dosierungen (Dosis effectiva) sind aus der nachfolgenden Tabelle ersichtlich.

Assay [1] relates to Trichostrongylus colubriformis. Briefly: In vivo nematode test, Trichostrongylus colubriformis / sheep (faecal egg count before and after treatment). The conditions noted are these: experimentally infected sheep (Schaf), treated after the prepatent period, pure active substance in gelatin capsules, oral, dose giving complete cessation of egg excretion, read-out: Dosis effectiva.
Source text: Trichostrongylus colubriformis / Schaf
Experimentell mit Trichostrongylus colubriformis infizierte Schafe wurden nach Ablauf der Präpatenzzeit des Parasiten behandelt. Die Wirkstoffe wurden als reiner Wirkstoff in Gelatinekapseln oral appliziert.
as §1, §2, §3

For the compound `Cc1ccccc1NC(=O)c1c(-c2c(F)cccc2Cl)noc1C` [Beispiel 221], in the assay with Haemonchus contortus, the minimal effective dose amounted to 5 mg/kg.
As for `Cc1onc(-c2c(F)cccc2Cl)c1C(=O)Nc1ccc(Cl)cc1F` [Beispiel 230], the minimal effective dose in assay [1] was found to be 5 mg/kg; in the assay on Haemonchus contortus, 10 mg/kg.
For `Cc1ccc(NC(=O)c2c(-c3c(Cl)cccc3Cl)noc2C)cc1` [Beispiel 119] the same measures were 10 mg/kg and 5 mg/kg.
With `CCCCCCCCCCCCCCCCCCNC(=O)c1c(-c2c(Cl)cccc2Cl)noc1C` [Beispiel 83], the minimal effective dose (in assay [1]; with Haemonchus contortus) was 10 mg/kg each time.
As to `Cc1onc(-c2c(Cl)cccc2Cl)c1C(=O)Nc1cc(F)cc(F)c1` [Beispiel 103], the minimal effective dose in the assay on Haemonchus contortus stood at 10 mg/kg.
For the compound `Cc1ccccc1NC(=O)c1c(-c2c(Cl)cccc2Cl)noc1C` [Beispiel 116], the minimal effective dose is 5 mg/kg in assay [1] and 10 mg/kg in the assay on Haemonchus contortus.
The like results for `CCCCCCCCCCCCCCCCCCNC(=O)c1c(-c2c(Cl)cccc2Cl)noc1CC` [Beispiel 1, N-Oktadecyl-3-(2,6-dichlor-phenyl)-5-ethyl-isoxazol-4-carbonsäureamid] were, in that order, 10 mg/kg and 5 mg/kg.
Turning to `Cc1ccc(OC(=O)c2c(-c3c(Cl)cccc3Cl)noc2C)cc1` [Beispiel 59], the minimal effective dose in assay [1] was 5 mg/kg; in the assay with Haemonchus contortus it was 10 mg/kg.
For `Cc1onc(-c2c(Cl)cccc2Cl)c1C(=O)Oc1ccc(Cl)cc1` [Beispiel 62] the same measures were 10 mg/kg and 10 mg/kg.
For `CCc1onc(-c2c(Cl)cccc2Cl)c1C(=O)Nc1ccc(SC(F)(F)F)cc1` [Beispiel 127] the same measures were 5 mg/kg and 10 mg/kg.
